According to patent US20130040914A1, “PRODRUGS OF AN HIV REVERSE TRANSCRIPTASE INHIBITOR” (priority 2010, published 2013):
Converted amounts (≈) assume the structure as drawn.

What was measured:
[1] = target: HIV reverse transcriptase (Human immunodeficiency virus type 1 group M subtype B, UniProt P03366); details: qualitative statement in Background; cited from earlier work
[2] = Aqueous solubility (background statement); assay type: physicochemical; details: qualitative statement in Background
[3] = Water solubility at room temperature (excess solid stirred in deionized water, HPLC); details: thermodynamic from solid; for solubility at 24 h: deionized water
Procedure: A stir bar was then placed in the tube and the tube placed on a multi-position stirrer plate. […] The solubility of each compound was determined via HPLC, wherein a portion of the supernatant was removed from the tube, diluted with ACN:water (50:50 by volume) as necessary to achieve a suitable concentration for analysis, and then analyzed by HPLC against a standard (=a solution of the K salt of Example 1 in ACN:water 50:50 by volume). One determination was made for each compound.
HPLC: column=Agilent Zorbax Eclipse (4.6×50 mm, 1.8 micron); mobile phase=0.1% H3PO4:ACN; gradient=90% to 10% H3PO4; flow rate=1.5 mL/minute; column temperature=45° C.; injection volume=25 μL; UV sampling with detection wavelength=210 nm; run time=15 minutes.

[4] = Oral bioavailability in pharmacokinetic studies in animals; assay type: in vivo; details: qualitative

SMILES	non-nucleoside reverse transcriptase inhibition [1]	aqueous solubility [2]	solubility at 24 h [3] [µg/mL]	oral bioavailability [4]	solubility at 4 h [3] [µg/mL]
N#Cc1cc(Cl)cc(Oc2c(C(F)(F)F)ccn(Cc3n[nH]c4ncccc34)c2=O)c1 [Compound A, 3-chloro-5-{[2-oxo-1-(1H-pyrazolo[3,4-b]pyridin-3-ylmethyl)-4-(trifluoromethyl)-1,2-dihydropyridin-3-yl]oxy}benzonitrile]	potent	relatively low	0.2 (≈ 0.449 µM)	relatively low	–
N#Cc1cc(Cl)cc(Oc2c(C(F)(F)F)ccn(Cc3nn(COP(=O)([O-])O)c4ncccc34)c2=O)c1.O.[K+] [Example 1, Potassium (3-{[3-(3-chloro-5-cyanophenoxy)-2-oxo-4-(trifluoromethyl)pyridin-1(2H)-yl]methyl}-1H-pyrazolo[3,4-b]pyridin-1-yl)methyl hydrogen phosphate monohydrate]	–	–	–	–	12000
CN(CCN)C(=O)n1nc(Cn2ccc(C(F)(F)F)c(Oc3cc(Cl)cc(C#N)c3)c2=O)c2cccnc21.O=S(=O)(O)c1ccccc1 [Example 9, N-(2-Aminoethyl)-3-{[3-(3-chloro-5-cyanophenoxy)-2-oxo-4-(trifluoromethyl)pyridin-1(2H)-yl]methyl}-N-methyl-1H-pyrazolo[3,4-b]pyridine-1-carboxamide benzenesulfonate]	–	–	1100	–	–
N#Cc1cc(Cl)cc(Oc2c(Cl)ccn(Cc3n[nH]c4ncccc34)c2=O)c1 [Compound B, 3-chloro-5-{[4-chloro-2-oxo-1-(1H-pyrazolo[3,4-b]pyridin-3-ylmethyl)-1,2-dihydropyridin-3-yl]oxy}benzonitrile]	potent	relatively low	–	–	–
